Experimental data published in patent US20250066289A1, “BIGUANIDE DERIVATIVE OF IBUPROFEN AND PROCESS OF PREPARATION THEREOF” (BVDU's Poona College of Pharmacy, priority 2023, published 2025).

Tests used:
[1] = system: CAR-induced paw edema; assay: CAR-induced paw edema anti-inflammatory study; format: in vivo, Male Wistar rats; conditions: for water volume displacement digital plethysmometer (paw volume): 5 mg/kg i.p., Mean ± SD, n=4
Protocol: (§1) Male Wistar rats weighing between 200 and 250 g were used for the studies. The animals were kept in animal cages with free access to standard pellet food and water at a temperature of 23±2° C., a 12-hour cycle of darkness and light, and a relative humidity of roughly 45 to 65%. The Institutional Animal Ethics Committee (IAEC) authorized the protocol, and the animal experiments were carried out in accordance with it as well as the Indian regulations established by the Committee for the Purpose of Control and Supervision of Experimental Animals (CPCSEA), New Delhi.
In the second experiment, the anti-inflammatory effect of Biguanide of Ibuprofen in comparison Ibuprofen was assessed by CAR-induced paw edema. The experimental groups were designed as follows (n=4 per group): • Group 1. Control group: 100 μl saline (i.d.)+saline (i.p.), • Group 2. CAR group: 100 μl CAR (i.d.)+saline (i.p.), • Group 3. Ibuprofen 5 mg/kg group: 100 μl CAR (i.d.)+5 mg/kg Ibuprofen (i.p.), • Group 4. Biguanide of Ibuprofen 5 mg/kg group: 100 μl CAR (i.d.)+5 mg/kg Biguanide of Ibuprofen (i.p.),
Carrageenan (100 μl) was injected by i.d. route per rat into the right hind paw. The rats were injected with i.p. Ibuprofen (5 mg/kg), and Biguanide of Ibuprofen (5 mg/kg) immediately after CAR injection. Saline was given to the control group. The paw volume was measured plethysmographically at 0 min, 30 min, 60 min, 90 min, 120 min, 180 min and 240 min. The 0th min reading was considered as the initial paw size of the rats. The change in the paw volume in the test groups was compared with the untreated control groups. The reduction in paw volume (mL) with the help of water plethysmometer was recorded.

[2] = system: STZ induced diabetic rats; assay: STZ induced diabetic study, fasting blood glucose; format: in vivo, Male Wistar rats; conditions: for Fasting Blood Glucose (FBG): Mean ± SD, n=4
Protocol: as §1
An intraperitoneal injection of streptozotocin (STZ, 55 mg/kg of body weight) was used to cause diabetes. STZ was dissolved in 0.1 mol/L citrate buffer, pH 4.5, and injected into the peritoneal cavity. The fasting blood glucose concentration (FBG) was used for diagnosis of diabetes. Animals having blood glucose level greater than 16.7 mmol/L after 24 hours were deemed diabetic. These animals were further selected for the study.
The animals (n=4) were divided into four groups. • Group 1: treated with vehicle (distilled water) vehicle control; • Group 2: treated with vehicle (drinking water and STZ) diabetic control; • Group 3: treated with metformin (10 mg/kg body weight/day in drinking water) diabetic test; and • Group 4: treated with Biguanide of Ibuprofen (10 mg/kg body weight/day in drinking water) diabetic test.
The treatment with metformin and Biguanide of Ibuprofen was given for 14 days. And at the end of treatment fasting blood glucose estimation was performed.

[3] = Day 7, 10 mg/kg body weight/day in drinking water
[4] = Day 14, 10 mg/kg body weight/day in drinking water

Compound | water volume displacement digital plethysmometer (paw volume) ([1]; 0 min (initial paw size)) [mL] | water volume displacement digital plethysmometer (paw volume) ([1]; 30 min after CAR) [mL] | water volume displacement digital plethysmometer (paw volume) ([1]; 60 min after CAR) [mL] | water volume displacement digital plethysmometer (paw volume) ([1]; 90 min after CAR) [mL] | water volume displacement digital plethysmometer (paw volume) ([1]; 120 min after CAR) [mL] | water volume displacement digital plethysmometer (paw volume) ([1]; 180 min after CAR) [mL] | water volume displacement digital plethysmometer (paw volume) ([1]; 240 min after CAR) [mL] | Paw volume compared to Ibuprofen (in words) ([1]; CAR-induced paw edema, both 5 mg/kg i.p.) | Effect on FBG levels in diabetic rats (in words) ([2]; 10 mg/kg/day, 14 days) | Fasting Blood Glucose (FBG) [2, 3] [mmol/L] | Fasting Blood Glucose (FBG) [2, 4] [mmol/L] | Reduction in FBG compared to metformin (in words) ([2]; both 10 mg/kg/day, 14 days)
CC(C)Cc1ccc(C(C)C(=O)NNC(=N)NC(=N)N)cc1 (centres unmarked) [Biguanide of Ibuprofen, N-carbamimidoyl-2-(2-(4-isobutylphenyl)propanoyl) hydrazine-1-carboximidamide] | 0.692 ± 0.012 | 0.853 ± 0.016 | 0.940 ± 0.013 | 0.875 ± 0.021 | 0.815 ± 0.015 | 0.740 ± 0.018 | 0.710 ± 0.011 | significantly decreased paw volume, when compared to that of the Ibuprofen | significant lowering of FBG levels | 22.93 ± 0.97 | 6.38 ± 0.86 | more marked reduction in FBG when compared to metformin
CN(C)C(=N)N=C(N)N [metformin, 3-(diaminomethylidene)-1,1-dimethylguanidine, reference compound] |  |  |  |  |  |  |  |  |  | 22.77 ± 1.12 | 10.27 ± 1.21 | 
